In one assay the test system is heme oxygenase 1 (HMOX1). As to the kind of experiment: Expression array experiments (transcriptional changes). In kind it is cell-based. As to conditions: multiple cell lines; data not shown.
The subject of the next assay is T-47D cells. Put plainly: Cell viability assay (ATPlite), T-47D. Format: cell-based. As to conditions: Homo sapiens, T47D, 96 hours, read-out: Cell Growth, IC50.
The next assay has as its target LSD1 (Homo sapiens, UniProt O60341). Put plainly: LSD1 histone demethylase assay (LSD1 Inhibitor Screening Assay Kit). Format: biochemical.

The results in this text go back to patent US9266838B2, “Substituted (E)-N′-(1-phenylethylidene)benzohydrazide analogs as histone demethylase inhibitors” (University of Utah Research Foundation, priority 2011, dated 2016).

Method for LSD1: Briefly, test compounds were diluted to 20× the desired test concentration in 100% DMSO and 2.5 μL of the diluted drug sample was added to a black 384-well plate. The LSD1 enzyme stock was diluted 17-fold with assay buffer and 40 μM of the diluted LSD1 enzyme was added to the appropriate wells.
(§1) IC50 values are determined using GraphPad Prism 5 software. The data were entered as an X-Y plot into the software as percent inhibition for each concentration of the drug. The concentration values of the drug were log transformed and the nonlinear regression was carried out using the “sigmoidal dose-response (variable slope)” option within the GraphPad software to model the data and calculate IC50 values.
Method for T-47D cells: Cells were cultured according to the procedures provided. […] Cells were cultured at 37° C. and 5% CO2.
Cell viability was determined using ATPlite™ Luminescence Assay System (PerkinElmer Inc., Waltham, Mass.) using the various cell-lines described above and in Table 4. Briefly, cells were seeded in 96-well plates and then treated with different concentrations of inhibitor (0.1% final DMSO concentration). After 96-hours of incubation, ATPlite detection reagent was added directly to the culture well. Luminescence was read 5 minutes later on an Envision microplate reader.
as §1

For `C/C(=N\NC(=O)c1cccc(S(=O)(=O)N2CCOCC2)c1)c1cc(Cl)ccc1O` [Compound 12, (E)-N′-(1-(5-chloro-2-hydroxyphenyl)ethylidene)-3-(morpholinosulfonyl)benzohydrazide], the “transcriptional change of HMOX1” value with heme oxygenase 1 (HMOX1) was “one of the most consistently up-regulated genes”.
Take `C/C(=N\NC(=O)c1cccc(S(=O)(=O)N2CCOCC2)c1)c1cccc(Cl)c1F` [Compound 13, (E)-N′-(1-(3-chloro-2-fluorophenyl)ethylidene)-3-(morpholinosulfonyl)benzohydrazide]: in the assay with T-47D cells, the concentration for half-maximal inhibition (IC50) (in general, the midpoint of a concentration-inhibition curve) was above 10000 nM.
As to `C/C(=N\NC(=O)c1cccc(S(=O)(=O)N2CCC(C)CC2)c1)c1cc(Cl)ccc1O` [Compound 26, (E)-N′-(1-(5-chloro-2-hydroxyphenyl)ethylidene)-3-((4-methylpiperidin-1-yl)sulfonyl)benzohydrazide], the IC50 against LSD1 was 9.5 nM.
Still for that read-out and setting: the result for `CNS(=O)(=O)c1cccc(C(=O)N/N=C(\C)c2cc(Cl)ccc2O)c1` [Compound 29, (E)-3-(2-(1-(5-chloro-2-hydroxyphenyl)ethylidene)hydrazinecarbonyl)-N-methylbenzenesulfonamide] reads 8.7 nM; that for `C/C(=N\NC(=O)c1cccc(S(=O)(=O)N2CCN(C)CC2)c1)c1cc(Cl)ccc1O` [Compound 35, (E)-N′-(1-(5-chloro-2-hydroxyphenyl)ethylidene)-3-((4-methylpiperazin-1-yl)sulfonyl)benzohydrazide], below 10 nM; that for `O=C(c1cccc(S(=O)(=O)N2CCOCC2)c1)n1ccc(-c2cc(Cl)ccc2O)n1` [Compound 38, (3-(5-chloro-2-hydroxyphenyl)-1H-pyrazol-1-yl)(3-(morpholinosulfonyl)phenyl)methanone], above 3000 nM.
